Source: patent publication US20250152585A1, “PHARMACEUTICAL COMPOUND” (Duke Street Bio Limited, priority 2022, published 2025)
Like-named read-outs stand apart in the source and are kept apart here.

Assays:
[1] = target: T1, full length N-terminally FLAG-tagged PARP1 (Homo sapiens, UniProt P09874); assay: PARP1 probe displacement HTRF assay; conditions: for Selectivity: PARP1 over PARP2, ratio Kd (PARP2)/Kd (PARP1); for Kd: binned Kd
[2] = target: T1, full length N-terminally FLAG-tagged PARP1; assay: PARP1 biochemical DELFIA assay (auto-PARylation); design: recombinant full length human N-terminally FLAG-tagged PARP1
[3] = target: T2, N-terminally FLAG-tagged PARP2 (amino acids 1-583) (Homo sapiens, UniProt Q9UGN5); assay: PARP2 probe displacement HTRF assay; type: binding; conditions: binned Kd
T2 construct: N-terminally FLAG-tagged PARP2 (amino acids 1-583)
T2 sequence (Q9UGN5 whole entry, the tested form may be a part): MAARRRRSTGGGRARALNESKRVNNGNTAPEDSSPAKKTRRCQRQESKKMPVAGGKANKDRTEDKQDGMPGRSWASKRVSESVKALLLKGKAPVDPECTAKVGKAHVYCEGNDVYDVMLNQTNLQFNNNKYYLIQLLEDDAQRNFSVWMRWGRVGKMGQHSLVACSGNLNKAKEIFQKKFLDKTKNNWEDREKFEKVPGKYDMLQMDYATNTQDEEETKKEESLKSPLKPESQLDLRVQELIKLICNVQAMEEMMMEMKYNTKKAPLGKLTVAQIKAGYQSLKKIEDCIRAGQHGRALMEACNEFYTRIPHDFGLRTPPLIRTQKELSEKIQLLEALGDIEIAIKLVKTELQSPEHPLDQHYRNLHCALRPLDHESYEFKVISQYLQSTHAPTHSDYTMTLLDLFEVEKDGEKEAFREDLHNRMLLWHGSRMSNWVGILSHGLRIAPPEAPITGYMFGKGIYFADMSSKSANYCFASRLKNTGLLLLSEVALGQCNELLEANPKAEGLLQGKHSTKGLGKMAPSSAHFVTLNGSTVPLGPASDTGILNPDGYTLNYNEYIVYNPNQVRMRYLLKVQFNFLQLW
Protocol: Data analysis was performed identical as for PARP1.

[4] = read-out: PARP1 HTRF, probe displacement HTRF
[5] = binned IC50, biochemical auto-PARylation assay
[6] = read-out: PARP1 HTRF, PARP1 probe displacement HTRF
[7] = binned IC50, PARP1 biochemical DELFIA assay
[8] = PARP1 HTRF, probe displacement HTRF

T1 sequence (P09874 whole entry): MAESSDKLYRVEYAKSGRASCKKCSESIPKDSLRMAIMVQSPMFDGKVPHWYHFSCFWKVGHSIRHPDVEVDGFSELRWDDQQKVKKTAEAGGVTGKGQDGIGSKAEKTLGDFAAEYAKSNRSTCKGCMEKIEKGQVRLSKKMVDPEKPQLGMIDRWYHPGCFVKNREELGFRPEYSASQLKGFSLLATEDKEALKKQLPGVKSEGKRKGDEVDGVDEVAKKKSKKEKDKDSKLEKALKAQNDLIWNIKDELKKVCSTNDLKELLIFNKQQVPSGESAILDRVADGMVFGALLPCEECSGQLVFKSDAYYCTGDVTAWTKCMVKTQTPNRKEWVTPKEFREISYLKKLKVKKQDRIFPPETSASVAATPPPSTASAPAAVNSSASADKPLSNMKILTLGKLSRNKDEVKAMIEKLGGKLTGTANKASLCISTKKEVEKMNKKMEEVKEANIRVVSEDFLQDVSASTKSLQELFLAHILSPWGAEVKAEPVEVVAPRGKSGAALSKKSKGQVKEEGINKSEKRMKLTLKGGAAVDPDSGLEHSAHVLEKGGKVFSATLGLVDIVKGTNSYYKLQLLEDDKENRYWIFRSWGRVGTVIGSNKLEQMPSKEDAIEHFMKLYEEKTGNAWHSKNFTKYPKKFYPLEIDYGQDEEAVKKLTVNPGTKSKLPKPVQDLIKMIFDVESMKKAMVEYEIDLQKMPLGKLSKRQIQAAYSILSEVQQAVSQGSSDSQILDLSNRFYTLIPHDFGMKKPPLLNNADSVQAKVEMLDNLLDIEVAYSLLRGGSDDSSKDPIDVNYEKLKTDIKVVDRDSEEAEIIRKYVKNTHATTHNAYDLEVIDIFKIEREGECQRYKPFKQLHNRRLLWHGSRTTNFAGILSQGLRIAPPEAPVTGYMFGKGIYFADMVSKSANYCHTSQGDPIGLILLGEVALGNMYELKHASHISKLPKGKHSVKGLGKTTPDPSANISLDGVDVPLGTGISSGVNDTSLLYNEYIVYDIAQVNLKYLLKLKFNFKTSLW

Row | SMILES | Kd [1, 4] [nM] | IC50 [2, 5] [nM] | Kd ([3]; probe displacement HTRF) [nM] | Kd [1, 6] [nM] | IC50 [2, 7] [nM] | Kd ([3]; PARP2 probe displacement HTRF) [nM] | Kd [1, 8] [nM] | Kd ([1]; PARP1 HTRF, PARP1 probe displacement HTRF) [nM] | Selectivity ([1]; probe displacement HTRF)
1 | CC(=O)NC(=O)c1ccc(N2CCC(N3CCC(c4cc5ccccc5c(=O)[nH]4)C3)CC2)cc1 (single isomer, unassigned) [Compound 341a] | < 10 | < 10 | 100 to 1000 |  |  |  |  |  | +++ (+++ indicate a value of at least 100)
2 | CNC(=O)c1ccc(N2CCC(N3CCC(c4nc5c(c(=O)[nH]4)COC5)C3)CC2)cn1 (single isomer, unassigned) [Compound 272a] | > 10000 | > 10000 | > 10000 |  |  |  |  |  | − (− indicates a value of less than 10)
3 | CCc1nc(C(=O)NC)ccc1N1CCC(N2CCCC(c3nc4ccccc4c(=O)[nH]3)C2)CC1 (single isomer, unassigned) [Compound 112b] |  |  |  | 10 to 100 | 10 to 100 | > 10000 |  |  | +++ (+++ indicate a value of at least 100)
4 | CNC(=O)c1ccc(N2CCC(N3CC4(c5nc6c(c(=O)[nH]5)CCCC6)CC3C4)CC2)cn1 [Compound 361, N-methyl-5-(4-(4-(4-oxo-3,4,5,6,7,8-hexahydroquinazolin-2-yl)-2-azabicyclo[2.1.1]hexan-2-yl)piperidin-1-yl)picolinamide] |  | < 10 | 100 to 1000 |  |  |  | < 10 |  | +++ (+++ indicate a value of at least 100)
5 | CCc1ccc(C2CCN(C3CCN(c4ccc(C(=O)NC5CC5)nc4C#N)CC3)C2)[nH]c1=O (single isomer, unassigned) [Compound 409b] | < 10 | < 10 | 100 to 1000 |  |  |  |  |  | +++ (+++ indicate a value of at least 100)
6 | CCc1ccc(C2CCN(C3CCN(c4ccc(C(=O)NC)cc4)CC3)C2)[nH]c1=O (single isomer, unassigned) [Compound 355a] | 100 to 1000 | 100 to 1000 | 1000 to 10000 |  |  |  |  |  | − (− indicates a value of less than 10)
7 | CNC(=O)c1ccc(N2CCC(N3CC4(c5nc6ccc(F)cc6c(=O)[nH]5)CC3C4)CC2)c(C#N)n1 [Compound 387] |  | < 10 | 100 to 1000 |  |  |  | < 10 |  | +++ (+++ indicate a value of at least 100)
8 | CNC(=O)c1ccc(N2CCC(N3CCCC(c4nc5sc6c(c5c(=O)[nH]4)CCC6)C3)CC2)cn1 (single isomer, unassigned) [Compound 185a] |  |  |  | < 10 | < 10 | 100 to 1000 |  |  | +++ (+++ indicate a value of at least 100)
9 | O=c1[nH]c(C2CCN(C3CCN(c4nc5ccccc5[nH]4)CC3)C2)cc2ccccc12 (racemic) [Compound 297rac] | 10 to 100 | 10 to 100 | 100 to 1000 |  |  |  |  |  | − (− indicates a value of less than 10)
10 | CNC(=O)c1ccc(N2CCC(N3CCC(c4nc5sc6c(c5c(=O)[nH]4)CCC6)C3)CC2)cn1 (single isomer, unassigned) [Compound 189b] |  |  |  | < 10 | < 10 | 10 to 100 |  |  | ++ (++ indicates a value of 50 to less than 100)
11 | CNC(=O)c1ccc(N2CCC(N3CCCC(c4nc5onc(C(F)(F)F)c5c(=O)[nH]4)C3)CC2)cn1 (racemic) [Compound 191rac] |  |  |  | 100 to 1000 | 100 to 1000 | > 10000 |  |  | + (+ indicates a value of 10 to less than 50)
12 | CCc1ccc(C2CCN(C3CCN(c4ccc(C(=O)NC)cc4)CC3)C2)[nH]c1=O (single isomer, unassigned) [Compound 355b] | < 10 | < 10 | 100 to 1000 |  |  |  |  |  | +++ (+++ indicate a value of at least 100)
13 | CCc1nc(C(=O)NC)ccc1N1CCC(N2CCC(c3ccc(CC)c(=O)[nH]3)C2)CC1 (racemic) [Compound 134rac] |  |  |  | < 10 | < 10 | > 10000 |  |  | +++ (+++ indicate a value of at least 100)
14 | CCc1ccc(C2CCN(C3CCN(c4cnc(C(=O)NC)cc4C)CC3)C2)[nH]c1=O (single isomer, unassigned) [Compound 217b] |  |  |  | < 10 | < 10 | 100 to 1000 |  |  | ++ (++ indicates a value of 50 to less than 100)
15 | CNC(=O)c1ccc(N2CCC(N3CCCC(c4nc5onc(C)c5c(=O)[nH]4)C3)CC2)cn1 (single isomer, unassigned) [Compound 159a] |  |  |  | > 10000 | > 10000 | > 10000 |  |  | − (− indicates a value of less than 10)

Continued, in another order:

Row | Kd [1, 4] [nM] | IC50 [2, 5] [nM] | Kd ([3]; probe displacement HTRF) [nM] | Kd [1, 6] [nM] | IC50 [2, 7] [nM] | Kd ([3]; PARP2 probe displacement HTRF) [nM] | Kd [1, 8] [nM] | Kd ([1]; PARP1 HTRF, PARP1 probe displacement HTRF) [nM] | SMILES | Selectivity ([1]; probe displacement HTRF)
16 | < 10 | 10 to 100 | 1000 to 10000 |  |  |  |  |  | CNC(=O)c1ccc(N2CCC(N3CCC(c4cc5cc(O)ccc5c(=O)[nH]4)C3)CC2)cn1 (single isomer, unassigned) [Compound 357b] | +++ (+++ indicate a value of at least 100)
17 |  |  |  | < 10 | < 10 | 100 to 1000 |  |  | O=C(NCC(F)(F)F)c1ccc(N2CCC(N3CCC(c4nc5ccccc5c(=O)[nH]4)C3)CC2)cn1 (single isomer, unassigned) [Compound 130a] | + (+ indicates a value of 10 to less than 50)
18 | 10 to 100 | 10 to 100 | 1000 to 10000 |  |  |  |  |  | CNC(=O)c1ccc(N2CCC(N3CCC(c4[nH]c(=O)c5ccccc5c4C(F)(F)F)C3)CC2)cn1 (single isomer, unassigned) [Compound 404a] | +++ (+++ indicate a value of at least 100)
19 |  |  |  | < 10 | < 10 | > 10000 |  |  | CNC(=O)c1ccc(N2CCC(N3CCC(c4cc5cnccc5c(=O)[nH]4)C3)CC2)cn1 (racemic) [Compound 204rac] | +++ (+++ indicate a value of at least 100)
20 |  |  |  | 10 to 100 | 10 to 100 | > 10000 |  |  | CNC(=O)c1ccc(N2CCC(N3CCCC(c4ccc(C(C)C)c(=O)[nH]4)C3)CC2)cn1 (racemic) [Compound 132rac] | +++ (+++ indicate a value of at least 100)
21 |  |  |  |  | < 10 | 10 to 100 |  | < 10 | CNC(=O)c1ccc(N2CCC(N3CCC(c4cc5ccc(F)cc5c(=O)[nH]4)C3)CC2)cn1 (racemic) [Compound 154rac, 5-(4-(3-(7-fluoro-1-oxo-1,2-dihydroisoquinolin-3-yl)pyrrolidin-1-yl)piperidin-1-yl)-N-methylpicolinamide] | + (+ indicates a value of 10 to less than 50)
22 |  |  |  | < 10 | < 10 | 100 to 1000 |  |  | CNC(=O)c1ccc(N2CCC(N3CCC(c4cc5ccccc5c(=O)[nH]4)C3)CC2)cn1 (single isomer, unassigned) [Compound 91b] | +++ (+++ indicate a value of at least 100)
23 |  |  |  | < 10 | < 10 | 1000 to 10000 |  |  | CNC(=O)c1ccc(N2CCC(N3CCC(c4nc5ccc(C(F)(F)F)cc5c(=O)[nH]4)C3)CC2)cn1 (single isomer, unassigned) [Compound 161b] | +++ (+++ indicate a value of at least 100)
24 |  |  |  | 10 to 100 | 10 to 100 | 1000 to 10000 |  |  | CNC(=O)c1ccc(N2CCC(N3CCC(O)(c4nc5ccccc5c(=O)[nH]4)C3)CC2)cn1 (single isomer, unassigned) [Compound 140b] | +++ (+++ indicate a value of at least 100)
25 |  |  |  | 10 to 100 | 10 to 100 | > 10000 |  |  | CCc1nc(C(=O)NC)ccc1N1CCC(N2CCC(c3nc4ccccc4c(=O)[nH]3)C2)CC1 (single isomer, unassigned) [Compound 118b] | ++ (++ indicates a value of 50 to less than 100)
26 | 100 to 1000 | 100 to 1000 | > 10000 |  |  |  |  |  | CNC(=O)c1ccc(N2CCC(N3CCC(c4cc5cccc(OC)c5c(=O)[nH]4)C3)CC2)cn1 (single isomer, unassigned) [Compound 249b] | + (+ indicates a value of 10 to less than 50)
27 | 100 to 1000 | 100 to 1000 | 1000 to 10000 |  |  |  |  |  | CNC(=O)c1cnc(N2CCC(N3CCC(c4cc5ccccc5c(=O)[nH]4)C3)CC2)s1 (racemic) [Compound 320rac] | − (− indicates a value of less than 10)
28 | < 10 | < 10 | 100 to 1000 |  |  |  |  |  | CNC(=O)c1ccc(N2CCC(N3CCC(c4cc5ncc(F)cc5c(=O)[nH]4)C3)CC2)cn1 (single isomer, unassigned) [Compound 315a] | +++ (+++ indicate a value of at least 100)
29 |  |  |  | 100 to 1000 | 100 to 1000 | > 10000 |  |  | CNC(=O)c1ccc(N2CCC(N3CCC(c4ccc(COC)c(=O)[nH]4)C3)CC2)cn1 (single isomer, unassigned) [Compound 207b] | − (− indicates a value of less than 10)
30 |  |  |  | 1000 to 10000 | 1000 to 10000 | > 10000 |  |  | CNC(=O)c1ccc(N2CCC(N3CCCC(c4ccc(OC)c(=O)[nH]4)C3)CC2)cn1 (single isomer, unassigned) [Compound 147b] | − (− indicates a value of less than 10)
31 |  |  |  | < 10 | < 10 | 10 to 100 |  |  | CNC(=O)c1ccc(N2CCC(N3CCC(c4[nH]c(=O)c5ccccc5c4Cl)C3)CC2)cn1 (single isomer, unassigned) [Compound 219a] | ++ (++ indicates a value of 50 to less than 100)
32 | < 10 | < 10 | 1000 to 10000 |  |  |  |  |  | CNC(=O)c1ccc(N2CCC(N3CCC(c4ccc(CCF)c(=O)[nH]4)C3)CC2)cn1 (racemic) [Compound 231rac] | +++ (+++ indicate a value of at least 100)
